80 sequences from patent publication US20030068615A1, “Polypeptides that bind HIV gp120 and related nucleic acids, antibodies, compositions, and methods of use” (priority 1999, published 2003) can be followed below.

The experiment addresses HIV-1LAI envelope gp120 (Human immunodeficiency virus type 1 group M subtype B, UniProt P03377). Format: binding. The following applies: for Counts per 20′ Average-background: CCR5 18-mer scan, radiolabeled HIV-1LAI gp120; for Relative % of Control: mean of two syntheses and binding experiments ± average deviation, wild-type = 100%; for number of radioactive decays (counts) counted: human CD4 21-mer scan, empty control 2075.

[1] abbreviates: STRL33 18-mer scan, background subtracted, first of two count columns.
Where [2] appears, read: STRL33 18-mer scan, background subtracted, second of two count columns.
Setting [3] is: Panel F, sequential alanine replacements of CD4 polypeptides, duplicate series, empty control 569.
Where [4] appears, read: Panel E, 9-mers and 12-mers of CD4, empty control 571.
[5] abbreviates: Panel C, 15-mers and 18-mers of CD4, empty control 556.
Setting [6] is: Panel A, 21-mers of CD4, empty control 515 and 617.
The mark [7] stands for this setting: CXCR4 18-mer scan, background subtracted, empty control 0.
Where [8] appears, read: CXCR4 18-mer scan, empty control 412.
Where [9] appears, read: Panel D, 9-mers and 12-mers of CD4, empty control […].
The mark [10] stands for this setting: Panel B, 15-mers and 18-mers of CD4, empty control 575.

Several values for one entry are separate records, joined by “and”; a condition that tells them apart may be missing. Identical values can stand only once. Like-named read-outs stand apart in the source and are kept apart here.

AARLLPPLYSLVFIFGFV [CCR5 segment 29-46]: where the note is “background subtracted”, the “Counts per 20′ Average-background” value worked out at 33 counts per 20′.

Take “ACLNPVLYAFVSLKFRKN [STRL33 segment 281-298]”: the “radioactive counts recorded in twenty minutes” value (shortened to “radioactive counts recorded”) by setting is: under setting [1], 4173.5 counts; under setting [2], 4515.5 counts.

Regarding “ADYQVSSPIYDINYYTSE [CCR5 (1-18) variant M1A]”, the “Relative % of Control” value (CCR5 (1-18) alanine variants) was 167 ± 4%.

For the sequence “AEGISIYTSDNYTEEMGS [CXCR4 (1-18) variant M1A]”, under “CXCR4 (1-18) alanine variants”, the “Relative % of Control” value is 118 ± 18%.

Take AEHDYHEDYGFSSFNDSS: the “Binding Results For Window Length (counts bound-background), 9” value (STRL33 amino terminus, 9-mer starting at the first residue of the printed sequence, background subtracted) stood at 354 counts. The “Binding Results For Window Length (counts bound-background), 12” value (STRL33 amino terminus, 12-mer starting at the first residue of the printed sequence, background subtracted) came out at 697 counts. For the same sequence, the “Binding Results For Window Length (counts bound-background), 15” value (STRL33 amino terminus, 15-mer starting at the first residue of the printed sequence, background subtracted) is listed as 1095 counts. Besides, the “Binding Results For Window Length (counts bound-background), 18” value (STRL33 amino terminus, 18-mer starting at the first residue of the printed sequence, background subtracted) was 1014 counts.

Regarding AEQVEFSFPLAFTVE, the “COUNTS of radiolabeled gp120 retained” value (Panel G, alanine replacements and serial truncations (Z) of CD4 polypeptides, empty control 580) was 18042 counts and 18546 counts.

Regarding AEVQLLVFGLTANSD, the “COUNTS of radiolabeled gp120 retained” value under setting [3] was 16220 counts and 14590 counts.

With “AFLQFSKVFLPCMYLVVF [STRL33 segment 25-42]”, the “radioactive counts recorded” value runs as follows: under setting [1], 1421.5 counts; under setting [2], 1359.5 counts.

In the case of AFQKASSIV, the “COUNTS of radiolabeled gp120 retained” value under setting [4] was 595 counts.

For the sequence AFQKASSIVYKK, the “COUNTS of radiolabeled gp120 retained” value under setting [4] was 597 counts.

Consider AFQKASSIVYKKEGE, for which the “COUNTS of radiolabeled gp120 retained” value under setting [5] is given as 544 counts.

Regarding AFQKASSIVYKKEGEQVE, under setting [5], the “COUNTS of radiolabeled gp120 retained” value was 514 counts.

As for AFQKASSIVYKKEGEQVEFSF, under setting [6], the “COUNTS of radiolabeled gp120 retained” value stood at 3775 counts.

For the sequence AFTVEKLTG, the “COUNTS of radiolabeled gp120 retained” value under setting [4] is recorded as 517 counts.

With AFTVEKLTGSGE, the “COUNTS of radiolabeled gp120 retained” value under setting [4] is given as 511 counts.

As to AFTVEKLTGSGELWW, under setting [5], the “COUNTS of radiolabeled gp120 retained” value was 586 counts.

On to AFTVEKLTGSGELWWQAE, for which the “COUNTS of radiolabeled gp120 retained” value under setting [5] is given as 788 counts.

Turning to “AFTVEKLTGSGELWWQAERAS [human CD4 226-246]”, the “number of radioactive decays (counts) counted” value was 3992 counts. In addition, the “COUNTS of radiolabeled gp120 retained” value under setting [6] amounted to 1739 counts.

For the sequence “AFVSLKFRKNFWKLVKDI [STRL33 segment 289-306]”, the “radioactive counts recorded” value is, setting by setting: under setting [1], 808.5 counts; under setting [2], 1040.5 counts.

Turning to AGGFQKHRSLKIIFLVMA, the “radioactive counts recorded” value by setting is: under setting [1], 340.5 counts; under setting [2], 260.5 counts.

AGLLLFIGLGIFFCVRCRHRR: the “number of radioactive decays (counts) counted” value came to 2099 counts.

As for AHLLQGQSLTLTLES, the “COUNTS of radiolabeled gp120 retained” value under setting [3] is 8602 counts and 5826 counts.

Take AISDLFFLLTVPFWAHYA [CCR5 segment 73-90]: where the note is “background subtracted”, the “Counts per 20′ Average-background” value was 41 counts per 20′.

Take “AIVHATNSQRPRKLLAEK [CXCR4 segment 137-154]”: the “radioactive counts recorded” value was found to be 73 counts under setting [7] and 485 counts under setting [8].

Regarding AKRFCKCCSIFQQEAPER [CCR5 segment 317-], where the note is “background subtracted”, the “Counts per 20′ Average-background” value was 64 counts per 20′.

As for “ALAFFHCCLNPILYAFLG [CXCR4 segment 289-306]”, the “radioactive counts recorded” value runs as follows: under setting [7], 181 counts; under setting [8], 593 counts.

Take “ALKTTVILILAFFACWLP [CXCR4 segment 237-254]”: the “radioactive counts recorded” value amounted to 261 counts under setting [7] and 673 counts under setting [8].

In the case of ANSDTHLLQ, the “COUNTS of radiolabeled gp120 retained” value under setting [9] worked out at 642 counts.

ANSDTHLLQGQS: the “COUNTS of radiolabeled gp120 retained” value under setting [9] was determined as 559 counts.

Regarding ANSDTHLLQGQSLTL, under setting [10], the “COUNTS of radiolabeled gp120 retained” value is on record as 542 counts.

Turning to ANSDTHLLQGQSLTLTLE, the “COUNTS of radiolabeled gp120 retained” value under setting [10] is listed as 1540 counts.

Regarding APYNIVLLLNTFQEFFGL [CCR5 segment 249-], the “Counts per 20′ Average-background” value (background subtracted) worked out at 1962 counts per 20′.

As to “AQNALTSVSRGSSLKILS [CXCR4 segment 313-330]”, the “radioactive counts recorded” value is recorded as 147 counts under setting [7] and 559 counts under setting [8].

ASSIVYKKE: the “COUNTS of radiolabeled gp120 retained” value under setting [4] is 600 counts.

For the sequence ASSIVYKKEGEQ, under setting [4], the “COUNTS of radiolabeled gp120 retained” value was 523 counts.

Take ASSIVYKKEGEQVEF: the “COUNTS of radiolabeled gp120 retained” value under setting [5] was found to be 589 counts.

Consider ASSIVYKKEGEQVEFSFP, for which the “COUNTS of radiolabeled gp120 retained” value under setting [5] was 701 counts.

Regarding ASSIVYKKEGEQVEFSFPLAF, the “COUNTS of radiolabeled gp120 retained” value under setting [6] is 25146 counts.

In the case of ATNSQRPRKLLAEKVVYV, the “radioactive counts recorded” value under setting [7] was found to be 78 counts and the “radioactive counts recorded” value under setting [8] is 490 counts.

As to “ATQMTLGFFLPLLTMIVC [STRL33 segment 193-210]”, the “radioactive counts recorded” value is reported as 2365.5 counts under setting [1] and 2444.5 counts under setting [2].

For the sequence AVFALKARTVTFGVVTSV, where the note is “background subtracted”, the “Counts per 20′ Average-background” value is recorded as 63 counts per 20′.

As for AVRLIFTIMTVYFLFWAP [CCR5 segment 233-], under “background subtracted”, the “Counts per 20′ Average-background” value is listed as 62 counts per 20′.

For AVVHAVFALKARTVTFGV, the “Counts per 20′ Average-background” value (background subtracted) worked out at 34 counts per 20′.

As for “AYLRACLNPVLYAFVSLK [STRL33 segment 277-294]”, the “radioactive counts recorded” value under setting [1] was determined as 1802.5 counts and the “radioactive counts recorded” value under setting [2] was 1849.5 counts.

Take “AYNQQAKRMTWGKVTSLL [STRL33 segment 137-154]”: the “radioactive counts recorded” value by setting is: under setting [1], 55.5 counts; under setting [2], 4.5 counts.

Take CEVEDQKEE: the “COUNTS of radiolabeled gp120 retained” value under setting [9] is 555 counts.

Regarding CEVEDQKEEVQL, the “COUNTS of radiolabeled gp120 retained” value under setting [9] stood at 561 counts.

Regarding CEVEDQKEEVQLLVF, the “COUNTS of radiolabeled gp120 retained” value under setting [10] worked out at 1729 counts.

For the sequence CEVEDQKEEVQLLVFGLT, under setting [10], the “COUNTS of radiolabeled gp120 retained” value was determined as 3797 counts.

Regarding CKAVHVIYTVNLYSSVLI, the “radioactive counts recorded” value is, setting by setting: under setting [7], 243 counts; under setting [8], 655 counts.

CKCCSIFQQEAPERASSV [CCR5 segment 321-]: where the note is “background subtracted”, the “Counts per 20′ Average-background” value is listed as 53 counts per 20′.

In the case of CQLLTGLYFIGFFSGIFF, the “Counts per 20′ Average-background” value (background subtracted) is given as 489 counts per 20′.

Take CSSSNRLDQAMQVTETLG [CCR5 segment 269-]: for the setting “background subtracted”, the “Counts per 20′ Average-background” value came out at 90 counts per 20′.

As to CTVLQNQKKVEFKID, under setting [5], the “COUNTS of radiolabeled gp120 retained” value is on record as 608 counts.

As for CTVLQNQKKVEFKIDIVV, the “COUNTS of radiolabeled gp120 retained” value under setting [5] came to 553 counts.

Take CYSGILKTLLRCRNEKKR: the “Counts per 20′ Average-background” value (background subtracted) was found to be 70 counts per 20′.

DAVANWYFGNFLCKAVHV: the “radioactive counts recorded” value by setting is: under setting [7], 112 counts; under setting [8], 524 counts.

Regarding DDRYICDRFYPNDLWVVV, the “radioactive counts recorded” value under setting [7] stood at 125 counts and the “radioactive counts recorded” value under setting [8] was 537 counts.

With DIGCLPYLGVSHQWKSSE, the “radioactive counts recorded” value by setting is: under setting [1], 17.5 counts; under setting [2], 78.5 counts.

As to DIVVLAFQK, the “COUNTS of radiolabeled gp120 retained” value under setting [4] was 686 counts.

In the case of DIVVLAFQKASS, the “COUNTS of radiolabeled gp120 retained” value under setting [4] amounted to 746 counts.

On to DIVVLAFQKASSIVY, for which the “COUNTS of radiolabeled gp120 retained” value under setting [5] stood at 776 counts.

For DIVVLAFQKASSIVYKKE, the “COUNTS of radiolabeled gp120 retained” value under setting [5] stood at 660 counts.

In the case of DIVVLAFQKASSIVYKKEGEQ, the “COUNTS of radiolabeled gp120 retained” value under setting [6] is listed as 788 counts.

“DLVFVCTLPFWAYAGIHE [STRL33 segment 77-94]”: the “radioactive counts recorded” value reads like this: under setting [1], 1116.5 counts; under setting [2], 1063.5 counts.

For the sequence “DLWVVVFQFQHIMVGLIL [CXCR4 segment 193-210]”, the “radioactive counts recorded” value runs as follows: under setting [7], 422 counts; under setting [8], 834 counts.

Turning to DQGNFPLII, under setting [9], the “COUNTS of radiolabeled gp120 retained” value stood at 662 counts.

Regarding DQGNFPLIIKNL, the “COUNTS of radiolabeled gp120 retained” value under setting [9] was 604 counts.

DQGNFPLIIKNLKIE: the “COUNTS of radiolabeled gp120 retained” value under setting [10] was 635 counts.

Take DQGNFPLIIKNLKIEDSD: under setting [10], the “COUNTS of radiolabeled gp120 retained” value is on record as 598 counts.

For DQKEEVQLL, under setting [9], the “COUNTS of radiolabeled gp120 retained” value stood at 589 counts.

As to DQKEEVQLLVFG, the “COUNTS of radiolabeled gp120 retained” value under setting [9] was determined as 1624 counts.

On to DQKEEVQLLVFGLTA, for which the “COUNTS of radiolabeled gp120 retained” value under setting [10] was 3905 counts.

As for DQKEEVQLLVFGLTANSD, the “COUNTS of radiolabeled gp120 retained” value under setting [10] was determined as 3317 counts.

In the case of DRYLAIVHATNSQRPRKL, the “radioactive counts recorded” value under setting [7] stood at 168 counts and the “radioactive counts recorded” value under setting [8] turned out to be 580 counts.

In the case of DRYLAVVHAVFALKARTV, under “background subtracted”, the “Counts per 20′ Average-background” value was 62 counts per 20′.

Take DSDTYICEV: the “COUNTS of radiolabeled gp120 retained” value under setting [9] was found to be 712 counts.

Regarding DSDTYICEVEDQ, the “COUNTS of radiolabeled gp120 retained” value under setting [9] is 937 counts.

DSDTYICEVEDQKEE: the “COUNTS of radiolabeled gp120 retained” value under setting [10] is reported as 973 counts.

For the sequence DSDTYICEVEDQKEEVQL, the “COUNTS of radiolabeled gp120 retained” value under setting [10] turned out to be 961 counts.
